Results reported in the METLIN SMRT retention time set (Domingo-Almenara et al. 2019).

experiment: gradient 5% acetonitrile 3 min, to 50% in 2 min, to 85% in 15 min, held 3 min, 100 µL/min; settings: column: Zorbax Extend-C18 2.1 x 50 mm; eluents: water / acetonitrile, 0.1% formic acid
Method in brief: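 In both positive and negative ionization mode, a quadrupole time-of-flight mass spectrometer coupled to HPLC analyzed pure standards run in mixtures of ~100 molecules. The Zorbax Extend-C18 column (2.1 × 50 mm, 1.8 μm) was operated at 100 μL/min with water and acetonitrile, each containing 0.1% formic acid. The dead volume was 40 μL and the dwell volume 900 μL. Retention time came from adduct peaks that were computationally picked and individually inspected by hand.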

RP-LC retention time [s] | SMILES
556 | COc1cc2ncc(C(=O)c3ccccc3)c(N3CCN(C)CC3)c2cc1OC
784 | O=C(CN1C(=O)C2CCCCN2c2ccc(C(=O)N3CCCCC3)cc21)NCc1ccco1 (configuration not stated)
924 | O=C(CCC1CCCCC1)NC1CCN(c2ccc(=O)n(CC3CC3)n2)CC1
754 | O=C(NCc1cccc(C(F)(F)F)c1)C1CCCN(c2cnc3nccnc3c2)C1 (configuration not stated)
867 | CCOC(=O)CNC(=O)Nc1cccc(-c2nnc(Cc3ccc(C)cc3)o2)c1
557 | CCCNc1cc(N2CCC(CCC(=O)NCCc3ccccn3)CC2)ncn1
639 | O=C(Nc1ccc2ncnc(N3CCCC3)c2c1)c1cncc(Br)c1
1040 | CCOc1cc(-c2noc(-c3ncn4c3COC(c3ccc(F)cc3)C4)n2)ccc1OC (configuration not stated)
657 | Cc1cc(=O)n(CC(=O)N(C)c2ccccc2)c(N2CCOCC2)n1
626 | Cc1nc(-c2ccccc2)sc1CC(=O)NCCSc1nncn1C
542 | CCC(CC)CN1CCC(n2c(C)cnc2-c2ccncc2)C1 (configuration not stated)
640 | O=C(c1cccnc1)N1CCN(C(=O)c2nnn3c2COC(c2ccccc2)C3)CC1 (configuration not stated)
758 | CCOc1cc(=O)n2c(c1C(=O)Nc1cc(Cl)c(OC)cc1OC)CCCC2
1070 | Cc1cc(C)n(-c2ccnc(N(C)Cc3ccccc3)n2)n1
598 | Cc1ccccc1C(=O)NCc1ccc2c(c1)ncn2C(C)C
764 | Cn1c(=O)c2c(nc(Cc3ccccc3)n2C)n(C)c1=O
614 | O=C(CSc1nnc2sc3ccccc3n12)N1CCOCC1
758 | O=C(Cn1nc2c3cc(-c4ccc(F)cc4)nn3ccn2c1=O)N1CCCC1
819 | CCCNC(=O)CCc1nc2ccccc2n(CC(=O)Nc2cccc(SC)c2)c1=O
775 | Cc1cccc(NC(=O)N2CCC3(CC2)NC(=O)c2ccccc2O3)c1C
591 | Cc1cc(C(N)=O)c2cc(C(C)C)ccc2n1
618 | CN(C)CCNC(=O)Cc1cccn1-c1ccc(Cl)cc1
654 | CC(C)c1cc(C(=O)N2Cc3ccc(CN4CCN(C)CC4)cc3C2)c(O)cc1O

RP-LC retention time [s] | SMILES
804 | Cc1ccc(CN(C)C(=O)NC(C)C)s1
882 | COc1cccc(Cn2cc(S(=O)(=O)N3CCCCC3)ccc2=O)c1
801 | COc1ccccc1/C=C(\C#N)C(=O)O
677 | CCCNC(=O)C1CCN(c2ccc(SCC(=O)Nc3cccc(SC)c3)nn2)CC1
763 | Cc1ccccc1CNS(=O)(=O)c1cn(CC(C)C)c2ncccc12
801 | Cc1cccc(OCc2nc(-c3ccc(NS(C)(=O)=O)cc3)no2)c1
936 | CC(C)c1ccc(-c2nc3ncccn3c2NCc2ccc(Cl)cc2)cc1
625 | O=C(NC1CCCC1)c1c2c(nc3ccccc13)CCCC2
982 | CCOc1ccc(NC(=O)N2c3ccccc3CC2c2nc(C3CC3)no2)cc1 (configuration not stated)
614 | Cc1cccc2c(C(=O)NC(C)C)cc(N(C)C)nc12
725 | COc1cccc(CC(=O)Nc2cnn(C)c(=O)c2N2CCOCC2)c1
947 | O=C1NC(=O)[C@@H](c2cn3c4c(cccc24)CCC3)[C@@H]1c1c[nH]c2ccccc12
838 | CCc1ccc(OCc2ccccc2C(=O)Nc2ccc3nc(C)cc(N)c3c2)cc1
828 | CCN(CC)C(=O)c1c(C)sc2ccn(Cc3ccc(F)cc3)c(=O)c12
829 | CCc1cc(C2CCCN2C(=O)Nc2ccc(OC)cc2OC)on1 (configuration not stated)
791 | Cc1cc(NC(=O)CC2COc3ccccc3NC2=O)ccc1Br (configuration not stated)
985 | Cn1nnc2ccc(-c3noc(-c4ccccc4)n3)cc21
615 | O=C(NCCCN1CCOCC1)c1ccc2c(c1)N(C(=O)c1ccc(F)cc1)CC2
702 | Cc1ccc(CNC(=O)C2CCN(C(=O)c3nn(C)c4c3CN(C(=O)C(C)C)CC4)CC2)cc1
640 | Cc1ccc(-c2noc(CCN3CCN(C(C)C)CC3)n2)cc1
917 | CCc1cc(C(=O)Nc2ccc(OC)cc2)nc2ccnn12
646 | Cc1sc2cc(C(=O)N3CCCC3)[nH]c2c1CN1CCCCC1
953 | Cc1nnc(NC(=O)c2ccccc2OCc2nc(-c3ccccc3)no2)s1

RP-LC retention time [s] | SMILES
719 | COc1cc(OC)c(NC(=O)Cn2nc3c(cc2=O)CCCC3)cc1Cl
592 | CCCC1c2nccn2CCCN1C(=O)c1ccoc1C (configuration not stated)
806 | CNC(=O)CSc1nc(-c2ccccc2)c(NC(=O)COc2ccccc2F)s1
574 | O=C(CCc1ccc2c(c1)CNCCO2)NCC1CC1
1140 | O=C1/C(=C/c2ccccc2)CN(C(=O)/C=C/c2ccccc2)C/C1=C\c1ccccc1
625 | CC(=O)NCc1cn[nH]c1-c1ccc(Cl)cc1
665 | Cc1ccc(-c2cn3ccccc3n2)cc1NS(=O)(=O)c1ccc(F)cc1
845 | Cc1ccc(F)c(NC(=O)Nc2ccc(-c3cccc4[nH]nc(N)c34)cc2)c1
1130 | CCCCN1C(=O)NC(c2ccccc2)C(c2nc(-c3ccccc3)no2)=C1C (configuration not stated)
1100 | CSc1cccc(NC(=O)Cn2c(C)nc3c(sc4nc(-c5ccccc5)ccc43)c2=O)c1
800 | COc1ccc(-c2noc(CN3N=NC4C(=O)N(c5ccc(OC)c(OC)c5)C(=O)C43)n2)c(OC)c1 (configuration not stated)
778 | COc1ccccc1NC(=O)C1CC(=O)N(c2ccc3c(c2)CCN3C(=O)C2CC2)C1 (configuration not stated)
1030 | Cn1c(C(=O)N2CCN(c3ncccn3)CC2)cc2c(-c3cccs3)nn(-c3ccccc3)c21
1020 | CCCn1ccc2sc(C)c(C(=O)NCc3cc(C)ccc3C)c2c1=O
739 | CCN1C(=O)c2cccc3c(NC(=O)c4c(F)cccc4F)ccc1c23
725 | Cc1cccc(OCc2nc(-c3ccnc(N4CCCC4)c3)no2)c1
939 | O=C(Cn1nc2c(SC3CCCCC3)nccn2c1=O)NC1CCCC1
867 | CCS(=O)(=O)Nc1cccc(OCc2nnc(-c3ccc(C)cc3)o2)c1
951 | Fc1cccc(-c2noc(-c3nc(-c4ccncc4)no3)n2)c1
916 | Fc1cccc(-c2noc(CSc3nccn3-c3ccccc3)n2)c1
583 | c1ccc(-c2nc(-c3cnccn3)no2)c(OC2CNC2)c1
1080 | O=S(=O)(Cc1ccccc1Cl)N(CCc1cccs1)Cc1ccco1
681 | O=c1c2cc(-c3ccccc3)nn2ccn1Cc1noc(CN2CCOCC2)n1

RP-LC retention time [s] | SMILES
837 | COc1ccc(-c2nnc(N3CCC(C(=O)Nc4ccc(OC)cc4OC)CC3)o2)cc1
933 | COc1ccc(-c2nc(NCCC3=CCCCC3)c3ccccc3n2)cc1
746 | COc1ccc(-c2cn3c(CC(=O)Nc4ccc(OC)cc4OC)csc3n2)cc1
1020 | COC(=O)c1ccc2c(=O)n(-c3cccc(OC)c3)c(N3CCSC3)nc2c1
816 | COc1ccccc1CCC(=O)N1C[C@@H]2C[C@H](NC(=O)c3ccccc3)[C@H]1C2
554 | Cc1cnc(C(=O)N2C[C@@H](Oc3cccnc3)C[C@H]2C(=O)NC2CC2)cn1
804 | O=C(NCc1ccc(F)cc1)C1CCN(C(=O)C2Sc3ccccc3NC2=O)CC1 (configuration not stated)
608 | CCC(=O)N(C1CCOCC1)C1CCN(Cc2cc(F)c(F)cc2F)CC1
869 | CCn1c(=O)c2c(nc(/C=C/c3ccc(OC)c(OC)c3)n2C)n(CC)c1=O
650 | O=C(Nc1ccccc1)Oc1ccc[nH]c1=O
698 | Cc1noc(C)c1Cc1ccc(C(=O)N2CCC3(CCC3O)CC2)o1 (configuration not stated)
950 | O=C(C1CCCN(c2nnc(-n3cccc3)s2)C1)N1CCN(c2ccc(F)cc2)CC1 (configuration not stated)
714 | CCc1nnc2c(=O)n(CC(=O)NC(C)c3ccccc3)c3cccnc3n12 (configuration not stated)
767 | CCOC(=O)c1sc(NC(=O)c2cn(C)nc2OC)nc1C
791 | CCOc1ccc(N2CC(NC(=O)C(=O)c3c[nH]c4ccccc34)CC2=O)cc1 (configuration not stated)
712 | COc1cccc(C2=NC3(CCN(C(=O)c4ccc5c(c4)OCO5)CC3)NC2=O)c1
1030 | COc1ccc(Cl)cc1NC(=O)NCCC1CCN(S(=O)(=O)c2ccc(F)cc2)CC1
648 | COCc1nc(C2CCN(C(=O)c3ccco3)C2)no1 (configuration not stated)
946 | Cc1cccc(NS(=O)(=O)c2cn(C(C)C)c3ncccc23)c1C
961 | O=C(CCn1c(=O)oc2ccccc21)Nc1nc(-c2ccccc2)cs1
969 | CC(=O)c1ccc(-n2ccc3c(cnc4c(-c5ccccc5)c(C)nn43)c2=O)cc1
900 | Cc1cc(-c2nnc(C3CCC3)o2)c(C)n1CC(=O)Nc1cccc(F)c1

SMILES | RP-LC retention time [s]
CCN(CC)C(=O)c1ccc2c(c1)N(CC(=O)N1CCCCC1)C(=O)C1CCCCN21 (configuration not stated) | 795
